Results published in the NIST ThermoML archive (doi:10.1021/je200757a).

Tests used:
[1] = xn = mol fraction of the nth substance listed; conditions: for viscosity / mass density: 101 kPa, Liquid; for viscosity: Capillary tube (Ostwald / Ubbelohde) method; for mass density: Vibrating tube method
[2] = refractive index (Na D-line) (dimensionless); xn = mol fraction of the nth substance listed; conditions: 101 kPa, Liquid

C1C[C@@H]2[C@H]3CC[C@H](C3)[C@@H]2C1 [exo-tetrahydrodicyclopentadiene] + CCCCCCCCC
surface tension liquid-gas [mN/m], [1], Capillary rise
Conditions | x2 = 0 | x2 = 0.1089 | x2 = 0.2212 | x2 = 0.3244 | x2 = 0.4159 | x2 = 0.5099 | x2 = 0.6161 | x2 = 0.7128 | x2 = 0.8078 | x2 = 0.9133
293.15 K | 31.86 | 30.17 | 27.92 | 27.12 | 26.34 | 25.59 | 24.35 | 23.84 | 23.14 | 22.6
303.15 K | 31.09 | 29.01 | 27.45 | 26.63 | 25.74 | 24.86 | 23.36 | 22.88 | 22.39 | 21.81

Conditions | mass density, 293.15 K [kg/m3] | mass density, 298.15 K [kg/m3] | mass density, 303.15 K [kg/m3] | mass density, 313.15 K [kg/m3] | refractive index, 293.15 K | refractive index, 303.15 K | viscosity, 293.15 K [mPa·s] | viscosity, 298.15 K [mPa·s] | viscosity, 303.15 K [mPa·s] | viscosity, 313.15 K [mPa·s]
[1], x2 = 0 | 935.3 | 931.4 | 927.5 | 919.6 | – | – | 3.077 | 2.784 | 2.525 | 2.112
[1], x2 = 0.1089 | 907.6 | 903.7 | 899.8 | 891.9 | – | – | 2.455 | 2.229 | 2.04 | 1.728
[1], x2 = 0.2212 | 880.1 | 876.2 | 872.3 | 864.4 | – | – | 2.005 | 1.836 | 1.687 | 1.441
[1], x2 = 0.3244 | 855.8 | 851.9 | 848 | 840.1 | – | – | 1.683 | 1.545 | 1.426 | 1.227
[1], x2 = 0.4159 | 835.1 | 831.2 | 827.2 | 819.4 | – | – | 1.459 | 1.344 | 1.244 | 1.077
[1], x2 = 0.5099 | 814.5 | 810.6 | 806.6 | 798.8 | – | – | 1.277 | 1.176 | 1.091 | 0.951
[1], x2 = 0.6161 | 792 | 788.1 | 784.2 | 776.3 | – | – | 1.109 | 1.028 | 0.958 | 0.839
[1], x2 = 0.7128 | 772.3 | 768.4 | 764.5 | 756.7 | – | – | 0.985 | 0.917 | 0.856 | 0.754
[1], x2 = 0.8078 | 753.7 | 749.8 | 745.9 | 738 | – | – | 0.887 | 0.827 | 0.775 | 0.686
[1], x2 = 0.9133 | 733.7 | 729.8 | 725.9 | 718.1 | – | – | 0.795 | 0.744 | 0.699 | 0.622
[2], x2 = 0 | – | – | – | – | 1.4877 | 1.4832 | – | – | – | –
[2], x2 = 0.1089 | – | – | – | – | 1.4777 | 1.4728 | – | – | – | –
[2], x2 = 0.2212 | – | – | – | – | 1.4667 | 1.4627 | – | – | – | –
[2], x2 = 0.3244 | – | – | – | – | 1.457 | 1.4517 | – | – | – | –
[2], x2 = 0.4159 | – | – | – | – | 1.45 | 1.445 | – | – | – | –
[2], x2 = 0.5099 | – | – | – | – | 1.4422 | 1.4377 | – | – | – | –
[2], x2 = 0.6161 | – | – | – | – | 1.4332 | 1.4282 | – | – | – | –
[2], x2 = 0.7128 | – | – | – | – | 1.426 | 1.421 | – | – | – | –
[2], x2 = 0.8078 | – | – | – | – | 1.4192 | 1.4139 | – | – | – | –
[2], x2 = 0.9133 | – | – | – | – | 1.4114 | 1.4062 | – | – | – | –

C1C[C@@H]2[C@H]3CC[C@H](C3)[C@@H]2C1 [exo-tetrahydrodicyclopentadiene] + CCCCCCCCCCCC
Conditions | mass density, [1] [kg/m3] | refractive index, [2] | surface tension liquid-gas, [1] [mN/m] | viscosity, [1] [mPa·s]
293.15 K, x2 = 0 | 935.3 | 1.4877 | 31.86 | 3.077
293.15 K, x2 = 0.0803 | 913 | 1.4796 | 30.13 | 2.796
293.15 K, x2 = 0.1712 | 889.9 | 1.4711 | 29.15 | 2.54
293.15 K, x2 = 0.2563 | 870 | 1.462 | 28.63 | 2.34
293.15 K, x2 = 0.3428 | 851.4 | 1.4573 | 27.95 | 2.169
293.15 K, x2 = 0.4443 | 831.4 | 1.4502 | 27.32 | 2.006
293.15 K, x2 = 0.5407 | 814.1 | 1.4448 | 26.32 | 1.881
293.15 K, x2 = 0.6527 | 795.7 | 1.4383 | 25.94 | 1.764
293.15 K, x2 = 0.7596 | 779.8 | 1.4325 | 25.67 | 1.672
293.15 K, x2 = 0.8855 | 762.7 | 1.4271 | 24.51 | 1.574
298.15 K, x2 = 0 | 931.4 | – | – | 2.784
298.15 K, x2 = 0.0803 | 909.1 | – | – | 2.535
298.15 K, x2 = 0.1712 | 886.1 | – | – | 2.307
298.15 K, x2 = 0.2563 | 866.2 | – | – | 2.127
298.15 K, x2 = 0.3428 | 847.7 | – | – | 1.974
298.15 K, x2 = 0.4443 | 827.7 | – | – | 1.827
298.15 K, x2 = 0.5407 | 810.4 | – | – | 1.715
298.15 K, x2 = 0.6527 | 792 | – | – | 1.61
298.15 K, x2 = 0.7596 | 776.1 | – | – | 1.526
298.15 K, x2 = 0.8855 | 759.1 | – | – | 1.438
303.15 K, x2 = 0 | 927.5 | 1.4832 | 31.09 | 2.525
303.15 K, x2 = 0.0803 | 905.2 | 1.4733 | 29.37 | 2.308
303.15 K, x2 = 0.1712 | 882.2 | 1.4657 | 28.51 | 2.104
303.15 K, x2 = 0.2563 | 862.4 | 1.4571 | 27.82 | 1.944
303.15 K, x2 = 0.3428 | 843.9 | 1.4524 | 26.77 | 1.807
303.15 K, x2 = 0.4443 | 824 | 1.4455 | 26.51 | 1.674
303.15 K, x2 = 0.5407 | 806.6 | 1.4396 | 25.84 | 1.572
303.15 K, x2 = 0.6527 | 788.3 | 1.4333 | 25.68 | 1.476
303.15 K, x2 = 0.7596 | 772.5 | 1.4279 | 24.58 | 1.4
303.15 K, x2 = 0.8855 | 755.5 | 1.4214 | 23.82 | 1.321
313.15 K, x2 = 0 | 919.6 | – | – | 2.112
313.15 K, x2 = 0.0803 | 897.4 | – | – | 1.939
313.15 K, x2 = 0.1712 | 874.5 | – | – | 1.775
313.15 K, x2 = 0.2563 | 854.7 | – | – | 1.644
313.15 K, x2 = 0.3428 | 836.2 | – | – | 1.532
313.15 K, x2 = 0.4443 | 816.4 | – | – | 1.422
313.15 K, x2 = 0.5407 | 799.2 | – | – | 1.337
313.15 K, x2 = 0.6527 | 780.9 | – | – | 1.257
313.15 K, x2 = 0.7596 | 765.1 | – | – | 1.193
313.15 K, x2 = 0.8855 | 748.1 | – | – | 1.128
